One data set is described as follows: Absorption maximum after colour development in a photographic silver halide layer according to Use Example I.
Details: not given
Format: physicochemical. The procedure:
The compounds of the formulae which follow are prepared according to methods which are in themselves known, from the corresponding 4-equivalentcoupling agents (the corresponding compounds with hydrogen in the position marked with *, in place of the substituents drawn). With regard to methods of manufacture, compare DT-OS or DT-AS 1,236,332, 2,043,271, 1,547,672 or 1,187,477. Next to the formula, the absorption maximum in nm is specified in each case (see footnote to Table I). ##SPC8##
*)After colour development of the coupling agents in a photographic silve
halide layer according to Use Example I
0.3 mmol of coupling agent of the formula (215) is dissolved in 2.0 ml of tricresyl phosphate/methylene chloride (3:7). The methylene chloride is evaporated off, 6.0 ml of an 8% strength aqueous solution of sodium isopropylnaphthalene-sulphonate, 20.0 ml of 6% strength gelatine solution and 3.4 ml of water are added and the mixture is adjusted to pH 6.5 and emulsified for 5 minutes by means of an ultrasonic apparatus with an output of 100 watt.
5.0 of coupling agent emulsion freshly treated with ultrasonics, 3.3 ml of silver bromide emulsion of pH 6.5, containing 1.4% of silver and 6.0% of gelatine, 2.0 ml of 1% strength aqueous solution of the hardener of the formula [formula] and 1.7 ml of water are mixed with one another and cast at 40°C on a substrated glass plate of size 13 cm × 18 cm. After solidifying at 10° C, the plate is dried in a drying cabinet with circulating air at 32° C.
A strip cut to 4.0 cm × 6.5 cm is exposed to 500 Lux/cm^2 under a step wedge for 2 seconds and is subsequently treated at 24° C as follows: […]
With `CCCCC(CC)COP(=O)(CCCNC(=O)c1ccc(Cl)c(NC(=O)CC(=O)c2ccccc2OC)c1)OCC(CC)CCCC` (stereo not shown) [(133)], the “Abs.max. (single maximum)” value turned out to be 436 nm.

For `CCCCOP(=O)(CCCC)Oc1cccc(NC(=O)Cc2ccc(NC(=O)CC(=O)c3ccccc3Cl)cc2)c1` (stereo not shown) [(138)], the “Abs.max. (single maximum)” value came out at 442 nm. In the case of `CCCCC(CC)COP(=O)(CCCOc1cccc(NC(=O)CC(=O)c2ccccc2)c1)OCC(CC)CCCC` (stereo not shown) [(122)], the “Abs.max. (single maximum)” value was determined as 436 nm. On the same count and under the same terms, with `CCCCCCOP(=O)(OCCCCCC)c1ccc(NC(=O)c2cccc(NC(=O)CC(=O)c3ccc(Cl)cc3)c2)cc1` [(145)] the figure was 449 nm; with `CCCCOP(=O)(CCCOc1cccc(NC(=O)CC(=O)c2ccccc2)c1)OCCCC` [(123)], 436 nm; with `CC(C)(C)P(=O)(Oc1ccccc1)Oc1ccc(NC(=O)CC(=O)c2ccccc2)cc1` (stereo not shown) [(129)], 440 nm. The same measure, in the same setting: with `CCCCOP(=O)(CCCOc1cc(OCCCP(=O)(OCCCC)OCCCC)cc(C(=O)Nc2ccc(Cl)c(NC(=O)CC(=O)C(C)(C)C)c2)c1)OCCCC` [(116)] the figure was 444 nm; with `COc1ccc(C(=O)CC(=O)Nc2cc(C(=O)NCCCP(=O)(OC(C)C)OC(C)C)ccc2C(=O)NCCCP(=O)(OC(C)C)OC(C)C)cc1` [(131)], 442 nm; with `CCCCOP(=O)(CCCOc1cccc(NC(=O)c2ccc3ccccc3c2O)c1)OCCCC` [(602)], 706 nm. On to `CCCCOP(=O)(Cc1ccc(CP(=O)(OCCCC)OCCCC)c(NC(=O)c2ccc(C)c(NC(=O)CC(=O)c3ccccc3Cl)c2)c1)OCCCC` [(143)], for which the “Abs.max. (single maximum)” value is recorded as 440 nm. Still for that read-out and setting: with `CCCCC(CC)COP(=O)(CCNC(=O)c1ccc(Cl)c(NC(=O)CC(=O)c2ccc(OC)cc2)c1)OCC(CC)CCCC` (stereo not shown) [(134)] the figure was 447 nm; with `CCCCOP(=O)(OCCCC)C(CC)OC(=O)c1ccc(NC(=O)CC(=O)c2ccccc2OC)cc1` (stereo not shown) [(142)], 435 nm; with `CCOP(=O)(CC(=O)Nc1cccc(NC(=O)CC(=O)c2ccccc2)c1)OCC` [(106)], 442 nm. The same measure, in the same setting: with `CCOP(=O)(CCCc1ccc(NC(=O)CC(=O)c2ccccc2)cc1)OCC` [(101)] the figure was 437 nm.

Staying with this data set, now noted: pyrazolone coupling agents.
Turning to `CCCCC(CC)COP(=O)(CCCOc1cc(OCCCP(=O)(OCC(CC)CCCC)OCC(CC)CCCC)cc(C(=O)Nc2ccc(C(=O)NC3=NN(c4c(Cl)cc(Cl)cc4Cl)C(=O)C3)cc2)c1)OCC(CC)CCCC` (stereo not shown) [(234)], the “Abs.max., first of two maxima (subsidiary maximum)” value (shortened to “Abs.max., first of two maxima”) is 434 nm and the “Abs.max., second of two maxima (absorption maximum)” value (“Abs.max., second of two maxima” for short) turned out to be 540 nm. As to `CCOP(=O)(CCCCCOc1cccc(C(=O)Nc2cccc(C(=O)NC3=NN(c4c(Cl)cc(Cl)cc4Cl)C(=O)C3)c2)c1)OCC` [(230)], the “Abs.max., first of two maxima” value came to 434 nm and the “Abs.max., second of two maxima” value is reported as 544 nm. For `CCCCOP(=O)(CCCOc1cc(OCCCP(=O)(OCCCC)OCCCC)cc(C(=O)Nc2cccc(NC3=NN(c4c(Cl)cc(Cl)cc4Cl)C(=O)C3)c2)c1)OCCCC` [(424)], the “Abs.max., first of two maxima” value was determined as 427 nm and the “Abs.max., second of two maxima” value was 532 nm. In the same order, the values of `CCOP(=O)(CCCOc1cccc(NC2=NN(c3c(Cl)cc(Cl)cc3Cl)C(=O)C2)c1)OCC` [(403)] are 424 nm and 526 nm. For `CCCCC(CC)COP(=O)(CCCOc1cccc(C(=O)Nc2cccc(C(=O)NC3=NN(c4c(Cl)cc(Cl)cc4OC)C(=O)C3)c2)c1)OCC(CC)CCCC` (stereo not shown) [(268)] the same measures were 438 nm and 540 nm. For `CCOP(=O)(CCCCCOc1cc(OCCCCCP(=O)(OCC)OCC)cc(C(=O)Nc2ccc(C(=O)NC3=NN(c4c(Cl)cc(Cl)cc4Cl)C(=O)C3)cc2)c1)OCC` [(212)] the same measures were 434 nm and 544 nm. Turning to `CC(C)OP(=O)(CCCOc1cccc(C(=O)Nc2ccc(C(=O)NC3=NN(c4c(Cl)cc(Cl)cc4Cl)C(=O)C3)cc2)c1)OC(C)C` [(210)], the “Abs.max., first of two maxima” value was found to be 434 nm and the “Abs.max., second of two maxima” value amounted to 543 nm.

As to `CCCCOP(=O)(CCCOc1cccc(C(=O)Nc2cccc(C(=O)NC3=NN(c4ccccc4)C(=O)C3)c2)c1)OCCCC` [(224)], the “Abs.max., first of two maxima” value came out at 440 nm and the “Abs.max., second of two maxima” value turned out to be 534 nm.

Turning to `CCCCOP(=O)(CCCOc1cccc(C(=O)Nc2ccc(C(=O)NC3=NN(c4c(Cl)cc(Cl)cc4Cl)C(=O)C3)cc2)c1)OCCCC` [(211)], the “Abs.max., first of two maxima” value was 434 nm and the “Abs.max., second of two maxima” value is on record as 543 nm.

In the case of `CCCCC(CC)COP(=O)(CCCOc1cccc(NC2=NN(c3cccc(Cl)c3)C(=O)C2)c1)OCC(CC)CCCC` (stereo not shown) [(413)], the “Abs.max., first of two maxima” value is given as 428 nm and the “Abs.max., second of two maxima” value is reported as 533 nm. In the same order, the values of `CCCCOP(=O)(CCCOc1cc(OCCCP(=O)(OCCCC)OCCCC)cc(C(=O)NC2=NN(c3ccc(C#N)cc3)C(=O)C2)c1)OCCCC` [(253)] are 440 nm and 540 nm. In the same order, the values of `CCOP(=O)(CCCOc1cc(OCCCP(=O)(OCC)OCC)cc(C(=O)Nc2cccc(C(=O)NC3=NN(c4c(Cl)cc(Cl)cc4Cl)C(=O)C3)c2)c1)OCC` [(216)] are 432 nm and 546 nm. For `CCCCC(CC)COP(=O)(CCCOc1cccc(C(=O)Nc2cccc(NC3=NN(c4c(Cl)cc(Cl)cc4Cl)C(=O)C3)c2)c1)OCC(CC)CCCC` (stereo not shown) [(422)] the same measures were 426 nm and 530 nm.

As for `CCOP(=O)(CCCOc1ccc(NC2=NN(c3ccccc3)C(=O)C2)cc1)OCC` [(405)], the “Abs.max., first of two maxima” value stood at 428 nm and the “Abs.max., second of two maxima” value is 526 nm. For `CCCCOP(=O)(CCCOc1cc(OCCCP(=O)(OCCCC)OCCCC)cc(C(=O)NC2=NN(c3c(C)c(Cl)c(OC)c(Cl)c3Cl)C(=O)C2)c1)OCCCC` [(254)] the same measures were 438 nm and 540 nm. For `CCCCOP(=O)(CCCOc1cccc(C(=O)Nc2cccc(NC3=NN(c4ccc(S(=O)(=O)N(CC)CC)cc4)C(=O)C3)c2)c1)OCCCC` [(427)] the same measures were 431 nm and 538 nm.

Regarding `CCOP(=O)(CCCOc1ccc(C(=O)Nc2ccc(C(=O)NC3=NN(c4c(Cl)cc(Cl)cc4Cl)C(=O)C3)cc2)cc1)OCC` [(203)], the “Abs.max., first of two maxima” value was found to be 434 nm and the “Abs.max., second of two maxima” value was determined as 539 nm. In the same order, the values of `CCCCOP(=O)(CCCOc1cc(OCCCP(=O)(OCCCC)OCCCC)cc(C(=O)Nc2cccc(C(=O)NC3=NN(c4c(C)cc(OC)cc4Cl)C(=O)C3)c2)c1)OCCCC` [(260)] are 440 nm and 535 nm.

As for `CCCCC(CC)COP(=O)(CCCOc1cccc(C(=O)Nc2cccc(C(=O)NC3=NN(c4cccc(Cl)c4)C(=O)C3)c2)c1)OCC(CC)CCCC` (stereo not shown) [(256)], the “Abs.max., first of two maxima” value is 438 nm and the “Abs.max., second of two maxima” value is 534 nm. In the same order, the values of `CCCCOP(=O)(CCCOc1cc(OCCCP(=O)(OCCCC)OCCCC)cc(C(=O)Nc2cccc(C(=O)NC3=NN(c4c(C)cc(C)cc4Cl)C(=O)C3)c2)c1)OCCCC` [(261)] are 440 nm and 535 nm. Take `CCCCC(CC)COP(=O)(CCCOc1cccc(OCC(=O)Nc2cccc(C(=O)NC3=NN(c4c(C)cc(C)cc4Cl)C(=O)C3)c2)c1)OCC(CC)CCCC` (stereo not shown) [(271)]: the “Abs.max., first of two maxima” value is 440 nm and the “Abs.max., second of two maxima” value amounted to 532 nm. Consider `CC(C)OP(=O)(CCCCCOc1cccc(C(=O)Nc2ccc(C(=O)NC3=NN(c4c(Cl)cc(Cl)cc4Cl)C(=O)C3)cc2)c1)OC(C)C` [(244)], for which the “Abs.max., first of two maxima” value came out at 434 nm and the “Abs.max., second of two maxima” value amounted to 542 nm. For `CCOP(=O)(CCCOc1cccc(C(=O)Nc2cccc(C(=O)NC3=NN(c4ccccc4)C(=O)C3)c2)c1)OCC` [(223)] the same measures were 440 nm and 534 nm. In the same order, the values of `CCOP(=O)(CCCCCOc1cccc(C(=O)Nc2cccc(C(=O)NC3=NN(c4ccccc4)C(=O)C3)c2)c1)OCC` [(227)] are 438 nm and 532 nm. In the case of `CCCCOP(=O)(CCCOc1cccc(C(=O)Nc2cccc(C(=O)NC3=NN(c4c(Cl)cc(Cl)cc4Cl)C(=O)C3)c2)c1)OCCCC` [(220)], the “Abs.max., first of two maxima” value worked out at 434 nm and the “Abs.max., second of two maxima” value amounted to 544 nm.

The values are drawn from patent US3984432A, “Color photographic recording material” (priority 1973, dated 1976).
